From patent US20090124624A1, “SUBSTITUTED 1-AMINOPHTHALAZINE DERIVATIVES, PREPARATION THEREOF AND THERAPEUTIC APPLICATION THEREOF” (SANOFI-AVENTIS, priority 2005, published 2009) come the findings set out here.

In assay [1] the target is T1, MCH1 receptor (Rattus norvegicus, UniProt P97639).
T1 construct: from tissue; host or cells: rat brain membranes
The assay can be described thus: Displacement of [125I]-Tyr-S36057 binding to MCH1 receptors, rat brain membrane preparations. Conditions: in rats, brain membranes, read-out: IC50 (concentration that inhibits 50% of the specific binding). Here is the method:
(§1) The measurement of the affinity of the compounds of the invention for the MCH receptors was performed by studying the displacement of the binding of a radiolabelled derivative of MCH to the MCH1 receptors. This study was performed on rat and/or mouse brain membrane preparations according to the protocol described below.
(§2) In anticipation of the binding studies, the brains are diluted in HEPES buffer 25 mM (pH: 7.4) containing MgCl2 5 mM, CaCl2 1 mM, homogenized using a Polytron blender for 3 times 20 seconds (speed 25), and are then ultracentrifuged at 22000 rpm and at +4° C. for 30 minutes. The centrifugation pellet is taken up in the same buffer and the membranes are divided into aliquots and stored frozen at −80° C. until the time of use. The membranes are warmed to room temperature and then incubated in the presence of the test compounds, and of […] of an MCH-based radiolabelled molecule, [^125I]-Tyr-S36057 (8-amino-3,6-dioxyoctanoyl MCH 6-17 sold by Perkin-Elmer), in HEPES buffer 25 mM (pH: 7.4) containing MgCl2 5 mM, CaCl2 1 mM, bacitracin 140 mg/L, phenanthroline 1 mM and 0.2% bovine serum albumin. […] The radioactivity retained on the filters is measured using a Gamma scintillation counter. The non-specific binding is determined in the presence of 1 μM of non-radiolabelled S36057. […]
(Displacement assays read how much labelled ligand stays bound in the presence of the test substance.)

For assay [2], the target named is T2, MCH1 receptor (Mus musculus, UniProt Q8JZL2).
T2 construct: from tissue; host or cells: mouse brain membranes
Description: Displacement of [125I]-Tyr-S36057 binding to MCH1 receptors, mouse brain membrane preparations. Conditions: in mice, brain membranes, read-out: IC50 (concentration that inhibits 50% of the specific binding). As to the method: as §1, §2

Counter-ions that a name gives are not always drawn.

T1 sequence (P97639 whole entry): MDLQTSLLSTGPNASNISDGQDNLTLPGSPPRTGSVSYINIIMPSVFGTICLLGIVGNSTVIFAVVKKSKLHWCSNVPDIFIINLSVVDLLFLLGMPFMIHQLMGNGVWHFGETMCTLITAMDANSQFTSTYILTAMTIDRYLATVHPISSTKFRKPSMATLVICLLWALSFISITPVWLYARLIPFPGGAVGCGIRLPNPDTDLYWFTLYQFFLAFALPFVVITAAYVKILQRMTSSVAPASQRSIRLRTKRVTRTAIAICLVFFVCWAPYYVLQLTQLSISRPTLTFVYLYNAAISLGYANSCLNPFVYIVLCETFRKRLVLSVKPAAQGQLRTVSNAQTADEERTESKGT
T2 sequence (Q8JZL2 whole entry): as the sequence (P97639 whole entry) above, with T5A, L24F, P27A, S29P, G34R, T138A counted along it

As to `COc1ccc2c(C3CCN(Cc4ccccc4)CC3)nnc(NC3CCN(Cc4ccc5c(c4)OCO5)CC3)c2c1` [Example 1, N-[1-(1,3-Benzodioxol-5-ylmethyl)piperidin-4-yl]-4-(1-benzylpiperidin-4-yl)-7-methoxyphthalazin-1-amine Trihydrochloride], the IC50 at MCH1 receptor [1] came out at 0.5 nM; at MCH1 receptor [2], 0.2 nM.
For `COc1ccc(-c2nnc(NC3CCN(Cc4ccc(OCCCN(C)C)cc4)CC3)c3cc(OC)ccc23)cc1` [Example 3, N-(1-[{4-[3-(Dimethylamino)propoxy]benzyl}piperidin-4-yl)-7-methoxy-4-(4-methoxy-phenyl)phthalazin-1-aminetrihydrochloride], the figures for the IC50 on MCH1 receptor [1] and on MCH1 receptor [2] were 52 nM and 38 nM, respectively.
